Results published in patent US20060193777A1, “Method of screening compounds for potential efficacy for the treatment of signs of aging” (priority 2005, published 2006).

How the values were obtained:
[1] = system: granular cells in the viable epidermis; assay: Confocal reflectance microscopy of upper inner arm skin, cell size decrease after product application; assay type: in vivo, human; conditions: two microliters/cm^2, imaged over 20 minutes, eight volunteers, gel with 3% DMAE
Procedure: A study was conducted using a VivaScope 1000 Confocal Reflectance Microscope from Lucid (Rochester, N.Y.) and a water immersion objective of NA 1.2-0.7 (60×). Sites on the upper inner arm were imaged immediately after product application (two microliters/cm^2 was applied) and every 2 minutes for an interval of 20 minutes. […] The confocal microscope was set up to acquire 16 frames from the top of the stratum corneum in steps of 3 micrometers, allowing observation of changes in cell size/morphology within a 48 micrometer depth region. As described by Rajadhyaksha et al., J. Invest. Dermatol. 113(3):293-303 (1999), the size of the cells varies (in diameter) with skin depth from 25-30 micromerters in the granular cells to 15-25 micrometers in spinous cells layers. In this study, cells were observed approximately 21 micrometers from the top of the stratum corneum, primarily granular cells, or at the top of the spinous cells. The exact same cells were compared in the initial maps and in the final maps in order to avoid any interference of cell size differences with the depth as described by Rajadhyaksha et al. After image acquisition, we used an enhancement routine developed in IDL® Software (Research System Inc., Boulder, Colo.) and the cells size area were measured using Image Pro Plus® (Media Cybernetics Inc., Silver Springs, Md.). […]

Human keratinocytes [2] = assay: Visual contraction of human keratinocytes by real time visual microscopy (cell area); assay type: cell-based
Procedure: Human keratinocytes and Epilife culture media (Cascade Biologics, Portland, Oreg.) were cultured at 37° C. in a humidified atmospheres of 5% CO2/95% air. Glass Cover Slides (Applied Biophysics, Troy, N.Y.) were coated with 0.01 mg/ml Laminin V (Sigma Aldirch, St Louis, Mo.) in sterile Phosphate Buffered Saline (Gibco Life Sciences, San Diego, Calif.). Human keratinocytes were prepared at a density of 0.125×10^6 cells/mL in Epilife culture media. Human keratinocytes were plated at 3.75×10^4 cells/well on a 6 well plate containing Laminin coated coverslips and cultured at 37° C. in a humidified atmospheres of 5% CO2/95% O2 for 48 hrs. Individual coverslips were transferred to a open bath imaging chamber (Warner Instruments, Hamden, Conn.) mounted on a Leica inverted microscope (Leitz DM1L) with an attached CCD camera. Cells were perfused with Hank's Buffered Salt Solution (HBSS; Gibco Life Sciences, San Diego, Calif.) at flow rate of 1 ml/min using a peristaltic pump (Cole Parmer, Vernon Hills, Ill.). […] The pH of the HBSS without DMAE or THPED. (“Media Alone”) was also adjusted to pH 7.2-7.3. […] Cell area was determined using Scion Image software (Version 4.0.2), and reductions in cell area were reported as the ratio of cell area after treatment to cell area prior to treatment

Human keratinocytes [3] = assay: Electric Cell-Substrate Impedance Sensing (ECIS) capacitance contraction of human keratinocytes; assay type: cell-based; conditions: for Electrical Capacitance Contraction of Human Keratinocytes (AUC of capacitance, Mean ± Std Dev): integrated over 5 hrs, 40,000 Hz, pH 7.2-7.3; for contraction or shrinkage of keratinocyte cell area as measured by keratinocyte capacitance (in words): compared to media treatment alone
From the text: Electrical changes due to the presence of a cell layer can be used to calculate cell morphological parameters including the barrier function of the cell layer (the spacing between the ventral side of the cell and the substratum) and the cell membrane capacitance (Giaever and Keese, Proceedings of National Academy of Sciences 88, 7896, 1991).
Current flowing between a reference electrode, onto which cells or cell cultures may be attached, and a larger counter electrode using normal culture medium as the electrolyte can be used to detect changes in cell morphological parameters. In the absence of cells on the electrode, the current flows unrestrained from the surface of the electrodes. In the presence of cells attached and spread upon the electrode, the current must now flow in the spaces under and between the cells, as the cell membrane act as insulators.
The electrical changes of living, viable cells can be sampled rapidly, in real time, over an extended period of time, and the measurements are the measurement is non-invasive. An example of this technology is the Electric Cell-substrate Impedance Sensing System (ECIS) available from Applied Biophysics (Troy, N.Y.). Electrical changes in keratinocyte morphological parameters can be used to identify novel compounds for anti-aging benefits.
Human keratinocytes and Epilife culture media (Cascade Biologics, Portland, Oreg.) were cultured at 37° C. in a humidified atmospheres of 5% CO2/95% air. Electric Cell-substrate Impedance Sensing System (ECIS) electrode arrays (Applied Biophysics , Troy, N.Y.) were coated with 0.01 mg/ml Laminin V (Sigma Aldirch, St Louis, Mo.) in sterile Phosphate Buffered Saline (Gibco Life Sciences, San Diego, Calif.). Human keratinocytes were prepared at a density of 0.125×10^6 cells/mL in Epilife culture media. Human keratinocytes were plated at 5.0×10^4 cells/electrode well and cultured at 37° C. in a humidified atmospheres of 5% CO2/95% O2 for 24-48 hrs. Capacitance changes (in nanofarads, nF) of keratinocytes were measured using a Electric Cell-substrate Impedance Sensing System (ECIS) Model 1600R (Applied Biophysics, Troy, N.Y.) using the method of Wegener and co-workers (Wegener J, Keese C R, Giaever I, Exp Cell Res. 259:158-166, 2000) at a frequency of 40,000 Hz. Capacitance readings are inversely related to the contact area of a cell onto the ECIS electrode array, the greater the cell area contacting the electrode the smaller the capacitance readings (Wegener J, Keese C R, Giaever I, Exp Cell Res. 259:158-166, 2000). Conversely as a cell contracts or shrinks, the contact area of the cell onto the ECIS electrode array decreases, resulting in an increase in the capacitance readings. […] These calculations are based on the trapezoid theorem. The AUC of the media curve was subtracted from the compound treated group. A positive AUC difference indicates keratinocyte contraction, the greater the AUC difference the greater the amount of keratinocyte contraction. […] DMAE is a known skin-firming agent. The compounds were diluted into Hank's Buffered Salt Solution (HBSS; Gibco Life Sciences, San Diego, Calif.) and the pH of the solution adjusted to between pH 7.2-7.3. The pH of the HBSS without compounds (“Media Alone”) was also adjusted to pH 7.2-7.3.

Human keratinocytes [4] = assay: Reversal of visual contraction of human keratinocytes after removal of DMAE; assay type: cell-based; conditions: for Reversal of Visual Contraction of Human Keratinocytes (Mean ± Std Dev): 0.1% DMAE
Procedure: Human keratinocytes and Epilife culture media (Cascade Biologics, Portland, Oreg.) were cultured at 37° C. in a humidified atmospheres of 5% CO2/95% air. Glass Cover Slides (Applied Biophysics, Troy, N.Y.) were coated with 0.01 mg/ml Laminin V (Sigma Aldirch, St Louis, Mo.) in sterile Phosphate Buffered Saline (Gibco Life Sciences, San Diego, Calif.). Human keratinocytes were prepared at a density of 0.125×10^6 cells/mL in Epilife culture media. Human keratinocytes were plated at 3.75×10^4 cells/well on a 6 well plate containing Laminin coated coverslips and cultured at 37° C. in a humidified atmospheres of 5% CO2/95% O2 for 48 hrs. Individual coverslips were transferred to a open bath imaging chamber (Warner Instruments, Hamden, Conn.) mounted on a Leica inverted microscope (Leitz DM1L) with an attached CCD camera. Cells were perfused with Hank's Buffered Salt Solution (HBSS; Gibco Life Sciences, San Diego, Calif.) at flow rate of 1 ml/min using a peristaltic pump (Cole Parmer, Vernon Hills, Ill.). […] The pH of the HBSS without DMAE or THPED. (“Media Alone”) was also adjusted to pH 7.2-7.3. […] Images were collected of a field of keratinocytes containing 10-20 cells at 0, 10 and 20 minutes of treatment using ImagePro software. Cell area was determined using Scion Image software (Version 4.0.2), and reductions in cell area were reported as the ratio of cell area after treatment to cell area prior to treatment
In the following example, keratinocytes were prepared and plated on coverslips as described above.

CN(C)CCO [DMAE, 2-(dimethylamino)ethanol]
Percentage of Decreases in Cell Size [1]: 15%
contraction or shrinkage of keratinocyte cell area as determined by keratinocyte surface area (in words) (Human keratinocytes [2]): dose-dependent contraction or shrinkage
Visual Contraction of Human Keratinocytes (reduction in cell area, Mean ± Std Dev) (Human keratinocytes [2]; 0.01%, 10 Min): 4.82% ± 0.68%
Visual Contraction of Human Keratinocytes (reduction in cell area, Mean ± Std Dev) (Human keratinocytes [2]; 0.01%, 20 Min): 6.22% ± 0.95%
Visual Contraction of Human Keratinocytes (reduction in cell area, Mean ± Std Dev) (Human keratinocytes [2]; 0.05%, 10 Min): 16.40% ± 2.58%
Visual Contraction of Human Keratinocytes (reduction in cell area, Mean ± Std Dev) (Human keratinocytes [2]; 0.05%, 20 Min): 18.04% ± 3.09%
Visual Contraction of Human Keratinocytes (reduction in cell area, Mean ± Std Dev) (Human keratinocytes [2]; 0.1%, 10 Min): 23.61% ± 3.03%
Visual Contraction of Human Keratinocytes (reduction in cell area, Mean ± Std Dev) (Human keratinocytes [2]; 0.1%, 20 Min): 33.83% ± 2.96%
Electrical Capacitance Contraction of Human Keratinocytes (AUC of capacitance, Mean ± Std Dev) (Human keratinocytes [3]; 0.01% V/V): 22.82 ± 4.1
Electrical Capacitance Contraction of Human Keratinocytes (AUC of capacitance, Mean ± Std Dev) (Human keratinocytes [3]; 0.05% V/V): 28.8 ± 5.6
Electrical Capacitance Contraction of Human Keratinocytes (AUC of capacitance, Mean ± Std Dev) (Human keratinocytes [3]; 0.1% V/V): 36.1 ± 5.9
contraction or shrinkage of keratinocyte cell area as measured by keratinocyte capacitance (in words) (Human keratinocytes [3]): dose-dependent contraction or shrinkage
Reversal of Visual Contraction of Human Keratinocytes (Mean ± Std Dev) (Human keratinocytes [4]; 20 Min Treatment with DMAE): 32.17% ± 2.65%
Reversal of Visual Contraction of Human Keratinocytes (Mean ± Std Dev) (Human keratinocytes [4]; 30 Min After Removal of DMAE): 24.25% ± 3.23%
Reversal of Visual Contraction of Human Keratinocytes (Mean ± Std Dev) (Human keratinocytes [4]; 60 Min After Removal of DMAE): 16.546% ± 3.89%
reversibility of keratinocyte contraction (in words) (Human keratinocytes [4]; after removal of DMAE): reversal of the DMAE-induced keratinocyte contraction

CC(O)CN(CCN(CC(C)O)CC(C)O)CC(C)O (stereo not drawn) [THPED, N,N,N′,N′-Tetrakis(2-hydroxypropyl)ethylenediamine]
contraction or shrinkage of keratinocyte cell area as determined by keratinocyte surface area (in words) (Human keratinocytes [2]): dose-dependent contraction or shrinkage
Visual Contraction of Human Keratinocytes (reduction in cell area, Mean ± Std Dev) (Human keratinocytes [2]; 0.1%, 2 Min): 32.9% ± 11.3%
Visual Contraction of Human Keratinocytes (reduction in cell area, Mean ± Std Dev) (Human keratinocytes [2]; 0.1%, 10 Min): 37.9% ± 10.7%
Visual Contraction of Human Keratinocytes (reduction in cell area, Mean ± Std Dev) (Human keratinocytes [2]; 0.1%, 20 Min): 47.3% ± 12.7%
Electrical Capacitance Contraction of Human Keratinocytes (AUC of capacitance, Mean ± Std Dev) (Human keratinocytes [3]; 0.01% V/V): 29.2 ± 3.2
Electrical Capacitance Contraction of Human Keratinocytes (AUC of capacitance, Mean ± Std Dev) (Human keratinocytes [3]; 0.05% V/V): 35.1 ± 5.3
Electrical Capacitance Contraction of Human Keratinocytes (AUC of capacitance, Mean ± Std Dev) (Human keratinocytes [3]; 0.1% V/V): 44.5 ± 9.1
contraction or shrinkage of keratinocyte cell area as measured by keratinocyte capacitance (in words) (Human keratinocytes [3]): dose-dependent contraction or shrinkage
